Several values for one entry are separate records, joined by “and”; a condition that tells them apart may be missing. Identical values can stand only once.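 Dose response: 5 concentrations. Exposure: 48 h. Format: 96-well plates. Endpoint: linear interpolation; highest concentration if not reached. GI50 is the concentration that inhibits growth by half. At the TGI there is no net growth.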

This assay has as its system MDA-MB-468 breast. The experiment in a line: NCI-60 cell line screen, 48 h.
For `CCn1c(-c2nonc2N)nc2cnc(Oc3cccc(NC(=O)c4ccc(N(C)C)cc4)c3)cc21`, the GI50 is 10.7 µM and the TGI is > 25 µM.
Taken in the same sequence, the figures for `CCOC(=O)[C@@H]1CSC(CC)=C(C(=O)O)N1` were > 100 µM and > 100 µM.
In the case of `C#C[C@]1(O)CC[C@H]2[C@@H]3CC=C4c5nc(N)sc5CC[C@]4(C)[C@H]3CC[C@@]21C`, the GI50 was 2.52 µM and the TGI was 7.03 µM.
The like results for `COc1ccc2c(c1)C(=O)c1c-2c(OCCN(C)C)nc2cc(OC)c(OC)cc12` were, in that order, 3.95 µM and 19 µM.
Taken in the same sequence, the figures for `O=CN1N=C(c2cccc(Nc3ccnc4cc(Cl)ccc34)c2)CC1c1ccc(Cl)cc1` (configuration not stated) were 0.422 µM and 3.17 µM.
The like results for `COc1ccc(C2=Nn3c(nnc3-n3nc(C)cc3C)SC2)cc1` were, in that order, 0.14 µM and > 100 µM.
Turning to `CC(C)OP(=O)(O)c1ncc(-c2ccc(C(F)(F)F)cc2)c(NC2CCCCCC2)n1`, the GI50 is 11.2 µM and the TGI is > 100 µM.
The like results for `CCOc1ccc2cc(-c3nn(CC4CCNCC4)c4ncnc(N)c34)ccc2c1` were, in that order, 14.3 µM and 30.2 µM.
Taken in the same sequence, the figures for `CCc1ccc2c(c1)N(CCO)C1=C(C(=O)OC1)C2c1cc(OC)c(OC)c(OC)c1` (configuration not stated) were 0.0897 µM and 0.347 µM.
Taken in the same sequence, the figures for `Cc1ccc(C2CC(c3ccc(Nc4ccnc5cc(Cl)ccc45)cc3)=NN2C=O)cc1` (configuration not stated) were 1.51 µM and > 100 µM.
As for `CS(=O)(=O)Nc1cc(-c2ccc3ncnc(Nc4cccc(Cl)c4)c3c2)cnc1Cl`, the GI50 is 0.145 µM and the TGI stood at 0.59 µM.
Taken in the same sequence, the figures for `COc1cc(-c2nn(-c3cccc(NC(=O)CCN4CCN(c5ccccc5)CC4)c3)cc2-c2ccncc2)ccc1Cl` were 3.03 µM and 51.4 µM.
The like results for `C=CC(=O)Nc1cc2c(Nc3ccc(F)c(Cl)c3)ncnc2cc1C#CC(C)(C)N1CCN(C)CC1` were, in that order, 0.00795 µM and 0.401 µM.
As to `CCCCCCCCCCCCCCCC[n+]1ccccc1`, the GI50 was 0.104 µM and 0.194 µM; the TGI is 0.428 µM and 0.793 µM.
For `CC1(C)N=C(N)N=C(N)N1c1cccc(CCc2ccccc2)c1`, the GI50 was 0.0745 µM and the TGI was determined as 2.51 µM.
Regarding `C[C@@H]1CCc2ncc(F)cc2[C@H]2CCCN2c2ccn3ncc(c3n2)C(=O)N1`, the GI50 is 76.4 µM and the TGI is > 100 µM.
In the case of `O=c1[nH]cnc2n[nH]nc12`, the GI50 is 1.31 µM and the TGI came to 12.7 µM.
With `CC(O)[C@H](NC(=O)N[C@@H](CC(N)=O)c1nc(N2CCNCC2)no1)C(=O)O` (some centres not stated), the GI50 is > 100 µM and the TGI is > 100 µM.
Take `CN1CC[C@H](c2c(O)cc(O)c3c(=O)cc(-c4ccccc4Cl)oc23)[C@H](O)C1`: the GI50 is 0.0718 µM and the TGI stood at 0.269 µM.
The like results for `CN(C)c1ccc(-c2ccc(-c3ccc(C(=N)N)cn3)o2)cc1` were, in that order, 1.39 µM and 3.05 µM.
Take `COc1cccc(-c2nc3sccn3c2-c2ccnc(NCCCNS(=O)(=O)c3ccccc3)c2)c1`: the GI50 is 2.47 µM and the TGI was determined as 7.83 µM.
Turning to `NC(=O)/C(=C/n1cnc(-c2cc(C(F)(F)F)cc(C(F)(F)F)c2)n1)c1cncnc1`, the GI50 is 0.373 µM and the TGI was determined as 3.01 µM.
For the compound `COc1cc2ncnc(Oc3cccc(NC(=O)Nc4cc(C(C)(C)C(F)(F)F)on4)c3)c2cc1OC`, the GI50 was 1.04 µM and 1.26 µM; the TGI was 6.01 µM and 6.4 µM.
As to `O=C1Nc2ccc3c(c2/C1=C\c1cc2c(cc1Br)OCO2)OCO3`, the GI50 is 0.295 µM and the TGI amounted to 0.978 µM.
Take `CC(=O)Oc1cc2cnc3c4cc(OC(C)=O)c(OC(C)=O)cc4ccc3c2cc1OC(C)=O`: the GI50 is 1.2 µM and the TGI came out at 4.44 µM.
The like results for `COc1ccc2c(c1OC)O/C(=C\c1ncc([N+](=O)[O-])n1C)C2=O` were, in that order, 2.51 µM and 8.23 µM.
Taken in the same sequence, the figures for `CCOC(=O)c1c(CN2CCN(C)CC2)nc2ccc(Cl)cc2c1-c1ccccc1` were 1.8 µM and 4.43 µM.
Taken in the same sequence, the figures for `CC[C@H]1OC(=O)[C@H](C)[C@@H](O[C@H]2C[C@@](C)(OC)[C@@H](O)[C@H](C)O2)[C@H](C)[C@@H](O[C@@H]2O[C@H](C)C[C@H](N(C)C)[C@H]2O)[C@](C)(OC)C/C(C)=C2/O[C@@]1(C)C=C2C` were 1.82 µM and 3.5 µM.
For `COc1cc(NC2CCCCC2O)c2nc(-c3ccc(Cl)cc3)ccc2c1` (configuration not stated), the GI50 was 7.48 µM and the TGI was found to be 98.4 µM.
The like results for `COc1ccc(/C=C/C(=O)c2cc3c(N)c(C(=O)Nc4ccc(OC)cc4)sc3nc2C)cc1` were, in that order, 0.135 µM and > 50 µM.
Taken in the same sequence, the figures for `COc1cc(-c2nn(-c3cccc(NC(=O)CCNc4ccc(N5CCOCC5)cc4)c3)cc2-c2ccncc2)ccc1Cl` were 2.01 µM and 22.9 µM.
Consider `CCOC(=O)/C(=C\c1ccc2ccccc2c1)P(=O)(OCC)OCC`, for which the GI50 is 1.9 µM and the TGI was determined as 3.83 µM.
With `CCO/C=N/C1=C(C#N)C(c2ccc(OC)cc2)c2sc3c(CC)cccc3c2O1` (configuration not stated), the GI50 was 2.5 µM and the TGI turned out to be 10.3 µM.
Take `COc1cc2c3cc1Oc1c(OC)c(OC)cc4c1C(Cc1ccc(O)c(c1)Oc1ccc(cc1)CC3N(C)CC2)N(C)CC4` (configuration not stated): the GI50 is 8.21 µM and the TGI amounted to 23.1 µM.
For the compound `CCOC(=O)c1c(NC(=O)c2ccc(Cl)cc2)sc2c(CN(C)C)c(O)ccc12`, the GI50 is 3.48 µM and the TGI worked out at 18.6 µM.
Taken in the same sequence, the figures for `COc1ccc(-c2cc(/C=C/C(=O)c3ccc(N)cc3)[nH]n2)cc1` were 0.43 µM and 2.09 µM.
Taken in the same sequence, the figures for `O=[N+]([O-])/C=C/c1ccc(Cl)cc1[N+](=O)[O-]` were 1.92 µM and 3.69 µM.
For `COc1ccc(C(O)c2cc3c(N)c(C(=O)Nc4cccc(Br)c4C)sc3nc2C)cc1` (configuration not stated), the GI50 was 0.125 µM and the TGI amounted to 19.1 µM.
Taken in the same sequence, the figures for `COc1cc2cc(Oc3cccc(NC(=O)Nc4cc(C(F)(F)F)cc(C(F)(F)F)c4)c3)c(C)nc2cc1OC` were 1.08 µM and 3.96 µM.
The like results for `COc1cc(/C=C2\SC(N3CCCCC3)=NC2=O)ccc1OCCCCCCOc1ccc(/C=C2\SC(N3CCCCC3)=NC2=O)cc1OC` were, in that order, 10.3 µM and 37.2 µM.
The like results for `Cc1cc(NN=C(c2ccc(O)cc2)c2ccc(O)cc2)c([N+](=O)[O-])cc1[N+](=O)[O-]` were, in that order, 4.91 µM and 36.7 µM.
